Experimental data reported in US8426408B2, “Pyrimidine inhibitors of kinases” (AbbVie Inc., priority 2009, dated 2013).

Experiments:
Aurora A = biological target: T1, Aurora A (Homo sapiens, UniProt O14965); assay: Aurora A enzyme inhibition (time-resolved fluorescence, STK substrate-2); assay type: biochemical; conditions: 1 mM ATP
T1 sequence (O14965 1-403): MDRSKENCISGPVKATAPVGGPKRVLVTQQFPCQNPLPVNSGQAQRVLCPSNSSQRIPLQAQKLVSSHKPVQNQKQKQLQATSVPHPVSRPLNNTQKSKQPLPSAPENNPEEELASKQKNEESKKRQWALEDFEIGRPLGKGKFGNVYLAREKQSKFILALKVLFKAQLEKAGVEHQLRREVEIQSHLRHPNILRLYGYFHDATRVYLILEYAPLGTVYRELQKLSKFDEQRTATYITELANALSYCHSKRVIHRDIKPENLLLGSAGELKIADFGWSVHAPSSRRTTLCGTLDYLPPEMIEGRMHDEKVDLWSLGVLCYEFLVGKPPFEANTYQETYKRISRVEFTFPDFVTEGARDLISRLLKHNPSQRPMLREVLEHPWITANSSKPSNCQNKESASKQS
Outline: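 Phosphorylation of biotinylated STK substrate-2 at 1 mM ATP, 1 h, Hepes buffer pH 7.4 (MgCl2, sodium orthovanadate, Triton X-100). After EDTA quench, 665/615 nm time-resolved fluorescence ratio read via europium anti-phospho antibody and SA-XL665; IC50 from exponential fit versus inhibitor concentration.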

NCI-H1299 cells = assay: Induction of polyploidy in H1299; assay type: cell-based, Human; conditions: NCI-H1299, 48 hours; for EC15: Homo sapiens, read-out: EC15 (concentration of inhibitor necessary to induce polyploidy in 15% of cells)
Procedure: To determine the induction of polyploidy in H1299 cells, NCI-H1299 were seeded (4K/well) into 96-well culture plates (tissue culture grade, black, flat-clear bottom) and incubated overnight to produce cell-to-plate adherence. Inhibitors at varying concentrations were added into duplicate wells containing cells and culture media (RPMI 1640, 10% fetal calf serum) and incubated at 37 C for 48 hours. The plates were then washed with PBS and the adherent cells fixed by incubating with 3% formalin for 1 hour. After washing four times with PBS, the cells were then stained with Hoechst and subjected to fluorescent (360 i/460e) microscopic high content analysis to determine the effect of inhibitors on nuclear size. Polyploid cells (≧4N) were defined as those having nuclear area>750μ^2. Potency was expressed as the concentration of inhibitor necessary to induce polyploidy in 15% of cells (EC15) and was calculated from least squares analysis of the log dose-response.

SMILES	Ki (Aurora A) [nM]	EC15 (NCI-H1299 cells) [nM]	EC15 (concentration of inhibitor necessary to induce polyploidy in 15% of cells) (NCI-H1299 cells)
CC(C)n1cc(Nc2ncc(Br)c(N[C@H]3[C@@H](C(N)=O)[C@@H]4C=C[C@H]3C4)n2)cn1 [Example 112, (1S,2S,3R,4R)-3-({5-bromo-2-[(1-isopropyl-1H-pyrazol-4-yl)amino]pyrimidin-4-yl}amino)bicyclo[2.2.1]hept-5-ene-2-carboxamide]	< 100	< 100	–
COCCOCCn1cc(Nc2ncc(Br)c(N[C@H]3[C@@H](C(N)=O)[C@@H]4C=C[C@H]3C4)n2)cn1 [Example 110, (1S,2S,3R,4R)-3-{[5-bromo-2-({1-[2-(2-methoxyethoxy)ethyl]-1H-pyrazol-4-yl}amino)pyrimidin-4-yl]amino}bicyclo[2.2.1]hept-5-ene-2-carboxamide]	< 100	< 100	–
C[C@@H](O)Cn1cc(Nc2ncc(Cl)c(N[C@H]3[C@@H](C(N)=O)[C@@H]4C=C[C@H]3C4)n2)cn1 [Example 105, (1S,2S,3R,4R)-3-{[5-chloro-2-({1-[(2R)-2-hydroxypropyl]-1H-pyrazol-4-yl}amino)pyrimidin-4-yl]amino}bicyclo[2.2.1]hept-5-ene-2-carboxamide]	< 100	< 100	–
Cn1cc(Nc2ncc(Cl)c(N[C@H]3[C@@H](C(N)=O)C[C@H]4C[C@@H]3C4(C)C)n2)cn1 [Example 165, (1R,2R,3S,5R)-2-({5-chloro-2-[(1-methyl-1H-pyrazol-4-yl)amino]pyrimidin-4-yl}amino)-6,6-dimethylbicyclo[3.1.1]heptane-3-carboxamide]	< 100	< 100	–
CCn1cc(Nc2ncc(C(F)(F)F)c(N[C@@H]3[C@H]4CC[C@H](C4)[C@@H]3C(N)=O)n2)cn1.CCn1cc(Nc2ncc(C(F)(F)F)c(N[C@H]3[C@@H]4CC[C@@H](C4)[C@H]3C(N)=O)n2)cn1 (mixture of isomers) [Example 24, (1R,2S,3R,4S)-3-{[2-[(1-ethyl-1H-pyrazol-4-yl)amino]-5-(trifluoromethyl)pyrimidin-4-yl]amino}bicyclo[2.2.1]heptane-2-carboxamide and (1S,2R,3S,4R)-3-{[2-[(1-ethyl-1H-pyrazol-4-yl)amino]-5-(trifluoromethyl)pyrimidin-4-yl]amino}bicyclo[2.2.1]heptane-2-carboxamide]	< 100	–	A (“A” represents an EC15 of less than 0.1 μM)
CS(=O)(=O)CCn1cc(Nc2ncc(Cl)c(N[C@H]3[C@@H](C(N)=O)[C@@H]4C=C[C@H]3C4)n2)cn1 [Example 119, (1S,2S,3R,4R)-3-{[5-chloro-2-({1-[2-(methylsulfonyl)ethyl]-1H-pyrazol-4-yl}amino)pyrimidin-4-yl]amino}bicyclo[2.2.1]hept-5-ene-2-carboxamide]	< 100	< 100	–
CC(C)n1cc(Nc2ncc(Cl)c(N[C@H]3[C@@H](C(N)=O)[C@@H]4C=C[C@H]3C4)n2)cn1 [Example 98, (1S,2S,3R,4R)-3-({5-chloro-2-[(1-isopropyl-1H-pyrazol-4-yl)amino]pyrimidin-4-yl}amino)bicyclo[2.2.1]hept-5-ene-2-carboxamide]	< 100	< 100	–
Cn1cc(Nc2ncc(C(F)(F)F)c(N[C@@H]3[C@@H]4CC[C@@H](C4)[C@@H]3C(N)=O)n2)cn1.Cn1cc(Nc2ncc(C(F)(F)F)c(N[C@H]3[C@H]4CC[C@H](C4)[C@H]3C(N)=O)n2)cn1 (mixture of isomers) [Example 20, (1S,2S,3R,4R)-3-{[2-[(1-methyl-1H-pyrazol-4-yl)amino]-5-(trifluoromethyl)pyrimidin-4-yl]amino}bicyclo[2.2.1]heptane-2-carboxamide and (1R,2R,3S,4S)-3-{[2-[(1-methyl-1H-pyrazol-4-yl)amino]-5-(trifluoromethyl)pyrimidin-4-yl]amino}bicyclo[2.2.1]heptane-2-carboxamide]	< 100	–	A (“A” represents an EC15 of less than 0.1 μM)
CCn1cc(Nc2ncc(Cl)c(NC3C4CCC(O4)C3C(N)=O)n2)cn1 (racemic) [Example 142, (1S,2R,3S,4R)-3-({5-chloro-2-[(1-ethyl-1H-pyrazol-4-yl)amino]pyrimidin-4-yl}amino)-7-oxabicyclo[2.2.1]heptane-2-carboxamide and (1R,2S,3R,4S)-3-({5-chloro-2-[(1-ethyl-1H-pyrazol-4-yl)amino]pyrimidin-4-yl}amino)-7-oxabicyclo[2.2.1]heptane-2-carboxamide]	< 100	–	B (“B” represents an EC15 of between 0.1 μM and 1 μM)
CCn1cc(Nc2ncc(Cl)c(N[C@@H]3[C@@H]4CC[C@@H](C4)[C@@H]3C(N)=O)n2)cn1.CCn1cc(Nc2ncc(Cl)c(N[C@H]3[C@H]4CC[C@H](C4)[C@H]3C(N)=O)n2)cn1 (mixture of isomers) [Example 114, (1R,2R,3S,4S)-3-({5-chloro-2-[(1-ethyl-1H-pyrazol-4-yl)amino]pyrimidin-4-yl}amino)bicyclo[2.2.1]heptane-2-carboxamide and (1S,2S,3R,4R)-3-({5-chloro-2-[(1-ethyl-1H-pyrazol-4-yl)amino]pyrimidin-4-yl}amino)bicyclo[2.2.1]heptane-2-carboxamide]	< 100	–	A (“A” represents an EC15 of less than 0.1 μM)
CN1CCC(Cn2cc(Nc3ncc(Cl)c(N[C@H]4[C@@H](C(N)=O)[C@@H]5C=C[C@H]4C5)n3)cn2)CC1 [Example 97, (1S,2S,3R,4R)-3-{[5-chloro-2-({1-[(1-methylpiperidin-4-yl)methyl]-1H-pyrazol-4-yl}amino)pyrimidin-4-yl]amino}bicyclo[2.2.1]hept-5-ene-2-carboxamide]	< 100	100 to 1000	–
CN(C)CC(=O)N1CCC(n2cc(Nc3ncc(Cl)c(N[C@H]4[C@@H](C(N)=O)[C@@H]5C=C[C@H]4C5)n3)cn2)CC1 [Example 89, (1S,2S,3R,4R)-3-{[5-chloro-2-({1-[1-(N,N-dimethylglycyl)piperidin-4-yl]-1H-pyrazol-4-yl}amino)pyrimidin-4-yl]amino}bicyclo[2.2.1]hept-5-ene-2-carboxamide]	< 100	< 100	–
Cc1nn(C)cc1Nc1ncc(Cl)c(N[C@H]2[C@@H](C(N)=O)[C@@H]3C=C[C@H]2C3)n1 [Example 134, (1S,2S,3R,4R)-3-({5-chloro-2-[(1,3-dimethyl-1H-pyrazol-4-yl)amino]pyrimidin-4-yl}amino)bicyclo[2.2.1]hept-5-ene-2-carboxamide]	< 100	< 100	–
Cn1cc(Nc2ncc([N+](=O)[O-])c(N[C@H]3[C@@H](C(N)=O)[C@@H]4C=C[C@H]3C4)n2)cn1 [Example 139, (1S,2S,3R,4R)-3-({2-[(1-methyl-1H-pyrazol-4-yl)amino]-5-nitropyrimidin-4-yl}amino)bicyclo[2.2.1]hept-5-ene-2-carboxamide]	< 100	< 100	–
NC(=O)[C@@H]1[C@H](Nc2nc(Nc3cnn(C[C@H]4CCCN4)c3)ncc2Cl)[C@H]2C=C[C@@H]1C2 [Example 102, (1S,2S,3R,4R)-3-{[5-chloro-2-({1-[(2R)-pyrrolidin-2-ylmethyl]-1H-pyrazol-4-yl}amino)pyrimidin-4-yl]amino}bicyclo[2.2.1]hept-5-ene-2-carboxamide]	< 100	< 100	–
